{
  "source": "ChEMBL document CHEMBL5233262",
  "about": "“Anti-inflammatory activity of naturally occuring diarylheptanoids - A review” (Bioorg Med Chem, 2021)",
  "key": {"[1]": {"experiment": "Antioxidant activity assessed as DPPH radical scavenging activity incubated for 30 mins by spectrophotometric analysis", "type": "functional"}, "RAW264.7 [2]": {"system": "RAW264.7", "experiment": "Antiinflammatory activity in mouse RAW264.7 cells assessed as inhibition of LPS-induced NO production preincubated for 1 hrs followed by LPS stimulation and measured after 24 hrs by Griess reagent based analysis", "type": "functional, cell-based"}, "RAW264.7 [3]": {"system": "RAW264.7", "experiment": "Antiinflammatory activity in mouse RAW264.7 cells assessed as inhibition of LPS-induced NO production at 30 uM preincubated for 0.5 hrs followed by LPS stimulation and measured after 24 hrs by Griess reagent based analysis", "type": "functional", "conditions": "time 24.5 hrs"}, "RAW264.7 [4]": {"system": "RAW264.7", "experiment": "Cytotoxicity against mouse RAW264.7 cells assessed as reduction in cell viability at 30 uM by MTT assay", "type": "toxicity, cell-based", "conditions": "raw264.7, 30 µM"}, "Mus musculus": {"system": "Mus musculus", "experiment": "Antiinflammatory activity in ICR mouse model of TPA-induced ear edema assessed as inhibition of ear inflammation at 1 mg,TOP for 30 mins followed by TPA addition and measured after 6 hrs", "type": "functional", "conditions": "time 390 min, 6.5 h"}, "[5]": {"experiment": "Antioxidant activity assessed as nitroblue tetrazolium superoxide radical scavenging activity incubated for 10 mins by spectrophotometric analysis", "type": "functional"}, "RAW264.7 [6]": {"system": "RAW264.7", "experiment": "Antiinflammatory activity in mouse RAW264.7 cells assessed as inhibition of LPS-induced NO production incubated for 20 hrs by Griess method", "type": "functional, cell-based", "conditions": "RAW264.7, 20 h"}, "RAW264.7 [7]": {"system": "RAW264.7", "experiment": "Antiinflammatory activity in mouse RAW264.7 cells assessed as inhibition of LPS-induced NO production preincubated for 0.5 hrs followed by LPS stimulation and measured after 24 hrs by Griess reagent based analysis", "type": "functional, cell-based"}, "RAW264.7 [8]": {"system": "RAW264.7", "experiment": "Antiinflammatory activity in mouse RAW264.7 cells assessed as inhibition of IFN-gamma and LPS-induced NO production incubated for 24 hrs by Griess assay", "type": "functional, cell-based", "conditions": "RAW264.7, 24 h"}, "RAW264.7 [9]": {"system": "RAW264.7", "experiment": "Antiinflammatory activity against mouse RAW264.7 cells assessed as inhibition of IFN-gamma and LPS-induced COX2 production preincubated for 2 hrs followed by IFN-gamma and LPS stimulation and measured after 16 hrs by spectrophotometric analysis", "type": "functional, cell-based"}, "RAW264.7 [10]": {"system": "RAW264.7", "experiment": "Antiinflammatory activity in mouse RAW264.7 cells assessed as inhibition of LPS-induced NO production incubated for 24 hrs by Griess reagent based analysis", "type": "functional, cell-based", "conditions": "RAW264.7, 24 h"}, "RAW264.7 [11]": {"system": "RAW264.7", "experiment": "Antiinflammatory activity in mouse RAW264.7 cells assessed as inhibition of LPS-induced TNFalpha production preincubated for 1 hr followed by LPS stimulation and measured after 18 hrs by immunoassay", "type": "functional, cell-based"}, "RAW264.7 [12]": {"system": "RAW264.7", "experiment": "Antiinflammatory activity in mouse RAW264.7 cells assessed as inhibition of LPS-induced NF-kappaB activation incubated for 24 hrs by SEAP microplate reader analysis", "type": "functional, cell-based", "conditions": "RAW264.7, 24 h"}, "RAW264.7 [13]": {"system": "RAW264.7", "experiment": "Antiinflammatory activity in mouse RAW264.7 cells assessed as inhibition of IFN-gamma and LPS-induced NO production incubated for 20 hrs by Griess assay", "type": "functional, cell-based", "conditions": "RAW264.7, 20 h"}, "MCF-10A": {"system": "MCF-10A", "experiment": "Antiinflammatory activity in human MCF-10A cells assessed as inhibition of TPA-induced COX2 production at 12.5 to 100 uM incubated for 4 hrs by Western blot analysis", "type": "functional", "conditions": "dose 12.5-100 µM"}, "Rattus norvegicus [14]": {"system": "Rattus norvegicus", "experiment": "Antiinflammatory activity in Wistar rat model of carrageenan-induced paw edema assessed as reduction in paw thickness at 10 mg/kg,po and measured after 5 hrs", "type": "functional", "design": "scale not given: the % may be the effect or the level left"}, "Rattus norvegicus [15]": {"system": "Rattus norvegicus", "experiment": "Antiinflammatory activity against Freund's complete adjuvant-induced arthritic Wistar rat model assessed as reduction in TNF-alpha level at 5 mg/kg,po measured after 28 days by ELISA", "type": "functional", "design": "scale not given: the % may be the effect or the level left", "conditions": "time 28 day"}, "Rattus norvegicus [16]": {"system": "Rattus norvegicus", "experiment": "Antiinflammatory activity against Freund's complete adjuvant-induced arthritic Wistar rat model assessed as reduction in IL-1beta level at 5 mg/kg,po measured after 28 days by ELISA", "type": "functional", "design": "scale not given: the % may be the effect or the level left", "conditions": "time 28 day"}, "Rattus norvegicus [17]": {"system": "Rattus norvegicus", "experiment": "Antiinflammatory activity against Freund's complete adjuvant-induced arthritic Wistar rat model assessed as reduction in IL-6 level at 5 mg/kg,po measured after 28 days by ELISA", "type": "functional", "design": "scale not given: the % may be the effect or the level left", "conditions": "time 28 day"}, "Rattus norvegicus [18]": {"system": "Rattus norvegicus", "experiment": "Antiinflammatory activity against Freund's complete adjuvant-induced arthritic Wistar rat model assessed as reduction in paw volume at 5 mg/kg,po measured after 28 days", "type": "functional", "design": "scale not given: the % may be the effect or the level left", "conditions": "time 28 day"}, "[19]": {"experiment": "Antioxidant activity assessed as DPPH radical scavenging activity incubated for 25 mins by spectrophotometric analysis", "type": "functional"}},
  "data": [
    {"smiles": "Oc1ccc(CCCC[C@@H](O)CCc2ccc(O)cc2)cc1", "values": [
      {"measurement": "IC50", "setting": "[1]", "value": 44.4, "unit": "µM"},
      {"measurement": "IC50", "setting": "RAW264.7 [2]", "value": 27.8, "unit": "µM"},
      {"measurement": "inhibition at 30 µM", "setting": "RAW264.7 [3]", "value": 29, "unit": "%"},
      {"measurement": "Activity", "setting": "RAW264.7 [4]", "value": 52, "unit": "%"},
      {"measurement": "ID50", "setting": "Mus musculus", "value": 0.66, "unit": "mg"}
    ]},
    {"smiles": "O=C(CCc1ccc(O)c(O)c1)C[C@@H](O)CCc1ccc(O)c(O)c1", "note": "[HIRSUTANONOL]", "values": [
      {"measurement": "IC50", "setting": "[1]", "value": 26, "unit": "µM"},
      {"measurement": "IC50", "setting": "[5]", "value": 19, "unit": "µM"},
      {"measurement": "IC50", "setting": "RAW264.7 [2]", "value": 21.3, "unit": "µM"},
      {"measurement": "IC50", "setting": "RAW264.7 [6]", "value": 17.8, "unit": "µM"},
      {"measurement": "IC50", "setting": "RAW264.7 [7]", "value": 30, "unit": "µM"},
      {"measurement": "IC50", "setting": "RAW264.7 [8]", "value": 44.3, "unit": "µg/mL"},
      {"measurement": "IC50", "setting": "RAW264.7 [9]", "value": 25.7, "unit": "µg/mL"},
      {"measurement": "IC50", "setting": "RAW264.7 [10]", "value": 19.3, "unit": "µM"},
      {"measurement": "IC50", "setting": "RAW264.7 [11]", "value": 23.7, "unit": "µM"},
      {"measurement": "IC50", "setting": "RAW264.7 [12]", "value": 9.9, "unit": "µM"},
      {"measurement": "IC50", "setting": "RAW264.7 [13]", "value": 3.8, "unit": "µM"},
      {"measurement": "inhibition (INH)", "setting": "MCF-10A", "value": 22, "unit": "%"}
    ]},
    {"smiles": "O=C(O)Cc1ccccc1Nc1c(Cl)cccc1Cl", "note": "[DICLOFENAC]", "values": [
      {"measurement": "Activity", "setting": "Rattus norvegicus [14]", "value": 39.5, "unit": "%"},
      {"measurement": "Activity", "setting": "Rattus norvegicus [15]", "value": 47, "unit": "%"},
      {"measurement": "Activity", "setting": "Rattus norvegicus [16]", "value": 7, "unit": "%"},
      {"measurement": "Activity", "setting": "Rattus norvegicus [17]", "value": 2.5, "unit": "%"},
      {"measurement": "Activity", "setting": "Rattus norvegicus [18]", "value": 28.3, "unit": "%"}
    ]},
    {"smiles": "O=C(O)c1cc(O)c(O)c(O)c1", "note": "[GALLIC ACID]", "values": [
      {"measurement": "IC50", "setting": "[19]", "value": 10.4, "unit": "µM"}
    ]}
  ]
}
